Entries after “also recorded” stand apart in the source; their conditions may differ.
Assays:
ZM4 = conditions: ethanol production; cited from earlier work
[1] = tested on: Zymomonas mobilis ZM4 wild-type; test: Bioscreen growth of Z. mobilis ZM4 wild-type in RM with inhibitors; assay type: cell-based
Procedure: (§1) FIGS. 3A-3C. […] Z. mobilis strains were grown in RM (pH5.0) overnight, 20-μL culture were then transferred into 250-μL, RM media in the Bioscreen plate. […] Strains included in this study are: ZM4: Zymomonas mobilis ZM4 wild-type; AcR: ZM4 acetate tolerant mutant (Joachimstahl 1998); ZM4 (p42-0347): ZM4 containing a gateway plasmid p42-0347 over-expressing ZM4 gene ZMO0347; AcRIM0347: AcR insertional mutant of ZMO0347; AcRIM0347 (p42-0347): AcRIM0347 containing gateway plasmid p42-0347 over-expressing ZM4 gene ZMO0347. […] Triplicates were used for each condition.
(§2) FIGS. 4A-4E. […] Z. mobilis strains were grown in RM (pH5.0) overnight, 5-μL culture were then transferred into 250-μL RM media in the Bioscreen plate. […] Strains included in this study are: ZM4: Zymomonas mobilis ZM4 wild-type; AcR: ZM4 acetate tolerant mutant; ZM4 (p42-0347): ZM4 containing a gateway plasmid p42-0347 to express ZM4 gene ZMO0347; AcRIM0347: AcR insertional mutant of ZMO0347; AcRIM0347 (p42-0347): AcRIM0347 containing gateway plasmid p42-0347. […] Duplicate biological replicates were used for each condition.
(§3) FIGS. 5A-5E. […] Z. mobilis strains were grown in RM (pH 5.0) overnight, 5-μL culture were then transferred into 250-μL RM media in the Bioscreen plate. […] Strains included in this study are: ZM4: Zymomonas mobilis ZM4 wild-type; AcR: ZM4 acetate tolerant mutant; AcRIM0347: AcR insertional mutant of ZMO0347; AcRIM0347 (p42-0347): AcRIM0347 containing gateway plasmid p42-0347 over-expressing ZM4 gene ZMO0347.
(§4) American Type Culture Collection (ATCC31821) and the Z. mobilis acetate tolerant strain AcR has been described previously (Joachimsthal et al. 2000). ZM4 and AcR were cultured in RM medium at 30° C. S. cerevisiae wild-type, deletion mutant and GST-fusion ORF over-expression strains were obtained through Open Biosystems (Huntsville, Ala.). S. cerevisiae strains were cultured in rich YPD media. CM media with 2% glucose was used for S. cerevisiae wild-type and S. cerevisiae deletion mutants, CM media with 2% glucose minus uracil was used for S. cerevisiae GST-over expressing strains, 2% galactose was used to induce the GST-fusion strains. Plasmid-containing strains were routinely grown with antibiotics at the following concentrations (μg/mL): kanamycin of 50 for E. coli and 200 for ZM4; tetracycline, 10 for E. coli and 20 for ZM4; and gentamicin, 10 for E. coli. G418 of 200 for S. cerevisiae YKO deletion mutants. Growth was monitored turbidometrically by measuring optical density at 600nm periodically with the Bioscreen C automated microbiology growth curve analysis system (Growth Curve USA, Piscataway, N.J.).

AcRIM0347 (p42-0347) = assay type: cell-based, Zymomonas mobilis; conditions: AcRIM0347 (p42-0347); RM pH 5.0 supplemented with 195 mM of the chemical, anaerobic
Procedure: as §1, §2, §3, §4

[2] = tested on: AcRIM0347: AcR insertional mutant of ZMO0347; assay type: cell-based, Zymomonas mobilis
Procedure: as §1, §2, §3, §4

[3] = tested on: AcR: ZM4 acetate tolerant mutant; assay type: cell-based, Zymomonas mobilis; conditions: AcR; RM pH 5.0 supplemented with 195 mM of the chemical, anaerobic
Procedure: as §1, §2, §3, §4

ZM4 (p42-0347) = test: Bioscreen growth of ZM4 (p42-0347) in RM with sodium and acetate ions; assay type: cell-based, Zymomonas mobilis
Procedure: as §1, §2, §4

[4] = tested on: S. cerevisiae Lsm deletion mutants; assay type: cell-based; conditions: sodium acetate 40 g/L; Lsm1, 6, 7, 9, 12, 13, 16 deletions
Procedure: (§5) FIGS. 6A-6B. […] S. cerevisiae strains were grown in CM with 2% glucose for wild-type BY4741 and the deletion mutants, CM with 2% glucose minus uracil for GST over-expression strains. Five-μL culture was then transferred into 300-μL CM broth in the Bioscreen plate.
(§6) FIGS. 7A-7P. […] S. cerevisiae strains were grown in CM with 2% glucose (CM+glucose) for wild-type BY4741 and the deletion mutants, CM with 2% glucose and 2% galactose minus uracil (CM+glucose+2% galactose) for GST overexpression strains. A 5-μL culture was then transferred into 250-μL CM broth in the Bioscreen plate.
American Type Culture Collection (ATCC31821) and the Z. mobilis acetate tolerant strain AcR has been described previously (Joachimsthal et al. 2000). ZM4 and AcR were cultured in RM medium at 30° C. S. cerevisiae wild-type, deletion mutant and GST-fusion ORF over-expression strains were obtained through Open Biosystems (Huntsville, Ala.). S. cerevisiae strains were cultured in rich YPD media. […] Growth was monitored turbidometrically by measuring optical density at 600nm periodically with the Bioscreen C automated microbiology growth curve analysis system (Growth Curve USA, Piscataway, N.J.).

[5] = tested on: S. cerevisiae Lsm protein over-expressing strains; test: Bioscreen growth of S. cerevisiae Lsm protein over-expressing (GST) strains with inhibitors; assay type: cell-based; conditions: sodium acetate 40 g/L; Lsm1, 6, 9, 12, 13, 16
Procedure: as §5, §6, §4

AcR mutant = conditions: cited from earlier work
Zymomonas mobilis = conditions: cited from earlier work
[6] = tested on: recombinant Zymomonas mobilis 8b; conditions: pure glucose/xylose solutions; cited from earlier work
[7] = pH 5.0; cited from earlier work
[8] = 16 g/L (195 mM) sodium acetate in RM
[9] = AcRIM0347, RM pH 5.0 supplemented with 195 mM of the chemical, anaerobic, NA = lack of growth
[10] = ZM4 (p42-0347), RM pH 5.0 supplemented with 195 mM of the chemical, anaerobic

CC(=O)[O-].[Na+] [NaAc, sodium acetate]
Sodium acetate concentration above which parent ZM4 was inhibited significantly (ZM4): above 12 g/L
Relative inhibitory effect on wild-type Z. mobilis growth among sodium and acetate salts ([1]; 195 mM in RM): most significant inhibitory effect
Growth of wild-type ZM4 in the presence of sodium acetate [1, 8]: unable to grow; also recorded: completely inhibited
Final Cell Density (AcRIM0347 (p42-0347)): 0.45 ± 0.002 OD600 nm
Growth rate (AcRIM0347 (p42-0347)): 0.16 ± 0.002 h⁻¹
Reduction of growth rate and final cell density of AcRIM0347 compared to parental strain AcR ([2]; 195 mM in RM): about 60%
Final Cell Density [2, 9]: 0.25 ± 0.001 OD600 nm
Growth rate [2, 9]: 0.12 ± 0.004 h⁻¹
Final Cell Density [3]: 0.63 ± 0.02 OD600 nm
Growth rate [3]: 0.29 ± 0.04 h⁻¹
Growth of ZM4 (p42-0347) in the presence of sodium acetate (ZM4 (p42-0347); [8]): able to grow
Final Cell Density (ZM4 (p42-0347); [10]): 0.59 ± 0.002 OD600 nm
Growth rate (ZM4 (p42-0347); [10]): 0.27 ± 0.004 h⁻¹
Growth of Lsm deletion mutants in the presence of sodium acetate [4]: negative effects on the growth
Growth of Lsm protein over-expressing strains in the presence of sodium acetate [5]: enhanced growth
Sodium acetate concentration at which AcR was capable of efficient ethanol production (AcR mutant): 20 g/L

CCO [ethanol]
Ethanol tolerance (Zymomonas mobilis): 12%

CC(=O)O [acetic acid]
Acetic acid concentration tolerated [6]: up to 16 g/L
Fraction in the uncharged and undissociated form (HAc) [7]: 36%
